Earlier results, collected in US20030068374A1, “Sustained release preparations of physiologically active compound hardly soluble in water and production process and use of the same” (priority 2000, published 2003).

Settings: in water, 18° C.

With `[O]=[Zn]` [zinc oxide] as the compound, how does the solubility read?
The solubility was 0.42 mg/100 ml.
